Activity calls are given as the source filed them.
Assays:
[1] = test system: Staphylococcus aureus; assay: Antibacterial activity against methicillin-resistant Staphylococcus aureus infected in kunming mouse peritonitis model assessed as reduction in bacterial colonies in kidney at 5 mg/kg, ip measured upto 8 days; assay type: functional, organism-based; conditions: time <= 8.0 day
[2] = test system: Staphylococcus aureus; assay: Upregulation of thiol peroxidase expression in Staphylococcus aureus at 12.5 microg/ml incubated for 3 hrs by RNA sequencing analysis; assay type: functional, organism-based; conditions: dose 12.5 µg/ml
[3] = test system: Staphylococcus aureus; assay: Upregulation of fmtA expression in Staphylococcus aureus at 12.5 microg/ml incubated for 3 hrs by RNA sequencing analysis; assay type: functional; conditions: dose 12.5 µg/ml
[4] = test system: Staphylococcus aureus; assay: Antimicrobial activity against Staphylococcus aureus at pH 5.4 to 6.4 incubated for 0.5 hrs; assay type: functional, organism-based
[5] = test system: Staphylococcus aureus; assay: Upregulation of ahpF expression in Staphylococcus aureus at 12.5 microg/ml incubated for 3 hrs by RNA sequencing analysis; assay type: functional; conditions: dose 12.5 µg/ml
[6] = test system: Staphylococcus aureus; assay: Antimicrobial activity against methicillin-resistant Staphylococcus aureus clinical isolate 3 assessed as inhibition of visible bacterial growth incubated for 18 hrs by CLSI based analysis; assay type: functional
[7] = test system: Staphylococcus aureus; assay: Antimicrobial activity against Staphylococcus aureus ATCC 25923 incubated for 1 hr in presence of PE; assay type: functional
[8] = test system: Staphylococcus aureus; assay: Upregulation of dltB expression in Staphylococcus aureus at 12.5 microg/ml incubated for 3 hrs by RNA sequencing analysis; assay type: functional; conditions: dose 12.5 µg/ml
[9] = test system: Staphylococcus aureus; assay: Antibacterial activity against methicillin-resistant Staphylococcus aureus infected in kunming mouse keratitis model measured upto 24 hrs; assay type: functional, organism-based
[10] = test system: Staphylococcus aureus; assay: Induction of ROS production in Staphylococcus aureus assessed as increase in fluorescence intensity at 2 times MIC by DCFH-DA probe based assay; assay type: functional, organism-based
[11] = test system: Staphylococcus aureus; assay: Upregulation of LiaF expression in Staphylococcus aureus at 12.5 microg/ml incubated for 3 hrs by RNA sequencing analysis; assay type: functional; conditions: dose 12.5 µg/ml
[12] = test system: Enterococcus gallinarum; assay: Antimicrobial activity against Enterococcus gallinarum ATCC 49573 assessed as inhibition of visible bacterial growth incubated for 18 hrs by CLSI based analysis; assay type: functional
[13] = Toxicity in kunming mouse assessed as effect on lung morphology at 5 mg/kg, ip; assay type: organism-based; conditions: in vivo
[14] = test system: Staphylococcus aureus; assay: Antimicrobial activity against Staphylococcus aureus ATCC 25923 incubated for 1 hr in presence of PGN; assay type: functional
[15] = test system: Staphylococcus aureus; assay: Antimicrobial activity against Staphylococcus aureus ATCC 25923 incubated for 1 hr in presence of PG; assay type: functional
[16] = test system: Staphylococcus aureus; assay: Antimicrobial activity against Staphylococcus aureus incubated for 0.5 hrs in presence of Fe2+; assay type: functional, organism-based
[17] = test system: Candida albicans; assay: Antifungal activity against Candida albicans assessed as reduction in fungal growth incubated for 18 hrs by CLSI based analysis; assay type: functional
[18] = Stability of compound in mouse serum measured after 24 hrs; assay type: ADME, cell-free
[19] = Toxicity in mouse assessed as change in food intake at 50 mg/kg, ip measured for 7 days; assay type: organism-based; conditions: in vivo, 168 h, time 7 day
[20] = test system: Staphylococcus aureus; assay: Antimicrobial activity against methicillin-resistant Staphylococcus aureus clinical isolate 4 assessed as inhibition of visible bacterial growth incubated for 18 hrs by CLSI based analysis; assay type: functional
[21] = Toxicity in mouse assessed as survival rate at 50 mg/kg, ip measured for 7 days; assay type: organism-based; conditions: in vivo, time 7 day
[22] = test system: Staphylococcus aureus; assay: Antimicrobial activity against methicillin-resistant Staphylococcus aureus clinical isolate 2 assessed as inhibition of visible bacterial growth incubated for 18 hrs by CLSI based analysis; assay type: functional
[23] = test system: Cell membrane; assay: Disruption of cell membrane integrity in Staphylococcus aureus at 4 times of MIC incubated for 30 mins by Propidium iodide staining based analysis; assay type: subcellular
[24] = test system: Staphylococcus aureus; assay: Antibacterial activity against methicillin-resistant Staphylococcus aureus infected in kunming mouse pneumonia model assessed as decrease in IL-10 expression in lung at 5 mg/kg, ip measured upto 8 days; assay type: functional, organism-based; conditions: time <= 8.0 day
[25] = Toxicity in mouse assessed as organ damage by measuring thickened alveolar wall in lungs at 5 mg/kg, ip measured upto 8 days; assay type: organism-based; conditions: in vivo, 192 h, time < 8 day
[26] = Hemolytic activity against mouse Red blood cells at 100 microg/ml incubated for 1 hr relative to control; assay type: toxicity, cell-based, Erythrocyte; conditions: at 100 µg/mL, read-out: Activity
[27] = Toxicity in mouse assessed as signs of drowsiness at 50 mg/kg, ip measured for 7 days; assay type: organism-based; conditions: in vivo, 168 h, time 7 day
[28] = test system: Staphylococcus aureus; assay: Upregulation of dltD expression in Staphylococcus aureus at 12.5 microg/ml incubated for 3 hrs by RNA sequencing analysis; assay type: functional; conditions: dose 12.5 µg/ml
[29] = test system: Staphylococcus aureus; assay: Antibacterial activity against methicillin-resistant Staphylococcus aureus infected in kunming mouse peritonitis model assessed as reduction in bacterial colonies in blood at 5 mg/kg, ip measured upto 8 days; assay type: functional, organism-based; conditions: time <= 8.0 day
[30] = test system: Staphylococcus aureus; assay: Antimicrobial activity against Staphylococcus aureus incubated for 0.5 hrs in presence of NA+; assay type: functional, organism-based
[31] = test system: Cell membrane; assay: Disruption of cell membrane integrity in Staphylococcus aureus at 4 times of MIC incubated for 1 mins by Propidium iodide staining based analysis; assay type: subcellular
[32] = test system: Staphylococcus aureus; assay: Upregulation of catalase expression in Staphylococcus aureus at 12.5 microg/ml incubated for 3 hrs by RNA sequencing analysis; assay type: functional, organism-based; conditions: dose 12.5 µg/ml
[33] = test system: Escherichia coli; assay: Antimicrobial activity against Escherichia coli assessed as inhibition of visible bacterial growth incubated for 18 hrs by CLSI based analysis; assay type: functional
[34] = test system: Staphylococcus aureus; assay: Antibacterial activity against methicillin-resistant Staphylococcus aureus infected in kunming mouse peritonitis model assessed as reduction in bacterial colonies in lung at 5 mg/kg, ip measured upto 8 days; assay type: functional, organism-based; conditions: time <= 8.0 day
[35] = test system: Staphylococcus aureus; assay: Antimicrobial activity against Staphylococcus aureus incubated for 0.5 hrs in presence of Ca2+; assay type: functional, organism-based
[36] = Toxicity in mouse assessed as lung damage at 50 mg/kg, ip measured for 7 days by H and E staining based analysis; assay type: organism-based; conditions: in vivo, 168 h, time 7 day
[37] = test system: Peptidoglycan; assay: Binding affinity to Staphylococcus aureus peptidoglycan assessed as change in entropy by ITC analysis
[38] = test system: Staphylococcus aureus; assay: Antibacterial activity against methicillin-resistant Staphylococcus aureus infected in kunming mouse peritonitis model assessed as reduction in bacterial colonies in spleen at 5 mg/kg, ip measured upto 8 days; assay type: functional, organism-based; conditions: time <= 8.0 day
[39] = test system: Staphylococcus aureus; assay: Antimicrobial activity against Staphylococcus aureus ATCC 25923 assessed as inhibition of visible bacterial growth incubated for 18 hrs by CLSI based analysis; assay type: functional
[40] = test system: Staphylococcus aureus; assay: Antimicrobial activity against Staphylococcus aureus incubated for 0.5 hrs in presence of Fe3+; assay type: functional, organism-based
[41] = Hemolytic activity against mouse Red blood cell incubated for 1 hr; assay type: toxicity, cell-based; conditions: erythrocyte
[42] = test system: Bacillus subtilis; assay: Antimicrobial activity against Bacillus subtilis ATCC 23875 assessed as inhibition of visible bacterial growth incubated for 18 hrs by CLSI based analysis; assay type: functional
[43] = test system: Staphylococcus aureus; assay: Inhibition of biofilm formation in Staphylococcus aureus at 1 to 16 times MIC by hochest33342/PI staining based analysis; assay type: functional
[44] = test system: Staphylococcus aureus; assay: Inhibition of biofilm formation in Staphylococcus aureus at 1 to 16 times MIC by crystal violet staining based analysis; assay type: functional
[45] = Toxicity in mouse assessed as kidney damage at 50 mg/kg, ip measured for 7 days by H and E staining based analysis; assay type: organism-based; conditions: in vivo, 168 h, time 7 day
[46] = test system: Staphylococcus aureus; assay: Antibiofilm activity in Staphylococcus aureus assessed as biofilm eradication at 4 times MIC relative to control; assay type: functional
[47] = test system: Staphylococcus aureus; assay: Upregulation of ahpC6 expression in Staphylococcus aureus at 12.5 microg/ml incubated for 3 hrs by RNA sequencing analysis; assay type: functional; conditions: dose 12.5 µg/ml

CC(C)[C@@H]1NC(=O)[C@@H](C(C)C)NC(=O)[C@H](C(C)C)NC(=O)[C@@H](CCCCN)NC(=O)[C@H](Cc2c(C(c3ccccc3)(c3ccccc3)c3ccccc3)[nH]c3ccccc23)NC(=O)[C@@H](C(C)C)NC(=O)[C@@H]2CSC1N2
26.2%: Activity [31]
active: Activity [1] | Activity [2] | Activity [3] | Activity [4] | Activity [5] | Activity [8] | Activity [9] | Activity [10] | Activity [11] | Activity [16] | Activity [24] | Activity [28] | Activity [29] | Activity [30] | Activity [32] | Activity [34] | Activity [35] | Activity [38] | Activity [40] | Activity [47]
40%: Activity [46]
46.7%: Activity [23]
> 100 µg/mL: HC5 [41]
100%: survival at 168 h [21]
6.25 µg/mL: MIC [20] | MIC [22] | MIC [39] | MIC [42]
3.13 µg/mL: MIC [17] | MIC [33]
~100%: inhibition (INH) [43] | inhibition (INH) [44]
7.55 kcal/mol: TdeltaS [37]
12.5 µg/mL: MIC [6] | MIC [12]
> 50 µg/mL: MIC [7] | MIC [14] | MIC [15]
Stable: Stability [18]
Non-toxic: Activity [13] | Activity [19] | Activity [25] | Activity [27] | Activity [36] | Activity [45]
< 5%: hemolysis at 1 h, 100 microg/ml [26]
